In patent US8642656B2, “Calixarene-based peptide conformation mimetics, methods of use, and methods of making” (priority 2004, dated 2014):
pIC50: −log10 of the molar value.

Assays:
[1] = system: E. coli J96; assay: Bactericidal assay on J96; type: cell-based; conditions: for pIC50: read-out: Bacterial activity on J96 IC50 (conc)
From the text: Pseudomonas aeruginosa type 1 is a clinical, smooth strain isolate stereotyped by using the scheme of Homma et al., Japan. J. Exp. Med. 46, 329-336 (1976) and maintained in the lab by monthly transfer on blood agar plates. E. coli J96, IA2, and H5 are smooth strain, uropathogenic clinical isolates kindly maintained and provided by J. R. Johnson and described in Johnson et al., J. Infect. Disease 173, 920-926 (1996) for J96 and IA2 and in Johnson et al., J. Infect. Disease 173, 746-749 (1996) for H5. J5 is an E. coli rough strain initially referenced by G. R. Siber and discussed in Warren et al., Infect. Immunity 55, 1668-1673 (1987) and is analogous to the smooth strain E. coli 0111:B4 used in the BioWhittaker LAL endotoxin detection and quantitation kit described below. Gram-positive MN8 and MNHO are two patient isolates of Staphylococcus aureus, which were kindly provided by P. M. Schlievert and described in Bohach et al., Rev. Infect. Diseases 11, 75-82 (1989) for MNHO and in Schlievert et al., J. Infect. Diseases 147, 236-242 (1983) for MN8. All cultures are maintained on nutrient agar plates.
Pyrogen-free solutions were used throughout the assay. Log phase bacteria were obtained by transferring an overnight culture or scraping crystals off-85° C glycerol stocks of overnight cultures. Bacteria were washed and resuspended in 0.9% sodium chloride with adjustment to an optical density at 650 nm which yields 3×10^8 CFU/ml. Bacteria were then diluted 1:10 in 0.08 M citrate phosphate buffer, pH 7.0 (prepared by mixing 0.08 M citric acid with 0.08 M dibasic sodium phosphate). Bacteria (0.15 ml) were incubated with the test compound in a final volume of 1.0 ml of buffer. The assay was done in 17×100 polypropylene tubes in a reciprocal water bath shaker at 37° C for 30 minutes. Following this 30 minute (min) incubation. 10-fold dilutions were made in 0.9% sodium chloride. Dilutions were done to 10^−4 and 20 μl of each dilution was streaked across an agar plate. Gram-positive organisms were plated on nutrient agar plates containing 2% agar and Gram-negative organisms were plated on MacConkey agar (2%). Plates were incubated overnight at 37° C and counted the next morning. The dilution containing 10-100 bacteria was counted and the number multiplied by 50 to adjust all counts to the number bacteria killed per milliliter. Compound concentrations were converted to logarithm base ten and graphed. Bactericidal activity was determined by dose response where LD50 values were determined by best fits of a sigmoidal curve to the dose response data.

[2] = system: endothelial cell (EC); assay: EC Proliferation Assay, [3H]thymidine incorporation (Example 36, Table 1); type: cell-based; conditions: read-out: EC proliferation IC50 (conc)
Experimental: Human umbilical vein derived EC(HUVEC) were harvested from normal human umbilical cords by perfusion with 0.125% trypsin/EDTA as described in Groenewegen et al., J. Exp. Med. 164, 131-143 (1986). For determination of quiescent EC phenotype isolated ECs were immediately fixed in 1% paraformaldehyde. Human microvascular ECs (MVECs) were isolated. ECs were cultured in fibronectin coated tissue culture flasks in culture medium (RPMJ-1640 with 20% human serum (HS), supplemented with 2 mM glutamine and 100 U/ml penicillin and 0.1 mg/ml streptomycin).
EC proliferation was measured using a [^3H]thymidine incorporation assay. ECs were seeded at 5000 cells/well in flatbottomed tissue culture plates and grown for 3 days, in the absence or presence of regulators, in culture medium. During the last 6 hours of the assay, the culture was pulsed with 0.5μ Ci [methyl-^3H]thymidine/well.

[3] = Solubility (Table 1); type: physicochemical; conditions: footnotes: 3 mM in 100% DMSO or ethanol → 0.03 mM in H2O
[4] = system: fibroblasts; assay: Proliferation of fibroblasts (general cell toxicity check); type: cell-based; conditions: read-out: concentration giving 50% growth inhibition, fibroblasts
[5] = system: bFGF-stimulated HUVEC; assay: EC proliferation, [3H]-thymidine incorporation, bFGF-stimulated HUVEC (Example 48); type: cell-based, human; conditions: bFGF-stimulated HUVEC; highest dose tested 25 μM
Experimental: Proliferation is expressed as mean counts per minute (cpm) of quadruplicate cultures in three independent experiments (±SEM). […] Human umbilical vein derived EC (HUVEC) were harvested from normal human umbilical cords by perfusion with 0.125% trypsin/EDTA. Harvested HUVECs were cultured in gelatin coated tissue culture flasks and subcultured 1:3 once a week in culture medium (RPM1-1640 with 20% human serum (HS), supplemented with 2 mM glutamine and 100 U/mL penicillin and 0.1 mg/mL streptomycin). Statistical analysis was performed by using the Student's t-test.

[6] = system: LPS from E. coli serotype 0111:B4; assay: LPS neutralization assay (Limulus amoebocyte lysate, QCL-1000); type: biochemical; conditions: Table 3; errors estimated ±30%; read-out: IC50 values (μM) for LPS binding, E. coli 0111:B4
From the text: (§1) The ability of compounds to neutralize endotoxin was detected in vitro by using the chromogenic QCL-1000 kit from BioWhittaker, Inc. (Walkersville, Md.), and as described in their protocol. This Limulus amoebocyte lysate (LAL) assay is quantitative for Gram negative bacterial endotoxin (lipopolysaccharide, LPS). In this assay compounds that are active inhibit the LPS-mediated activation of a proenzyme whose active form would release p-nitroaniline (pNA) from a colorless synthetic substrate producing a yellow color (pNA) whose absorption is monitored spectrophotometrically at 405-410 nm. The initial rate of enzyme activation is proportional to the concentration of endotoxin present.
(§2) Variants of LPS from six Gram negative bacteria were used: E. coli serotypes 0111:B4 (Combrex, Walkersville, Md.) and 055:B5 (Sigma, St. Louis, Mo.); Klebsiella pneumoniae (List Biologies, San Jose, Calif.); Pseudomonas aeruginosa (List Biologies, San Jose, Calif.); Salmonella typhimurium (List Biologies, San Jose, Calif.), and Serratia marcascens (List Biologies, San Jose, Calif.). The concentration of compound required to neutralize a given LPS and therefore to inhibit the Limulus amoebocyte lysate driven by 0.04 units of any given LPS was determined by dose response curves fit by using a standard sigmoidal function to determined the JC50 value for each lopomimetic compound. The 0.04 units corresponds to 0.01 ng LPS from E. coli serotype 055:B5, 0.01 ng LPS from E. coli serotype 0111:B4, 0.003 ng LPS from K. pneumoniae, 0.01 ng LPS from P. aeruginosa, 0.03 ng LPS from S. typhimurium, and 0.03 ng LPS from S. marcascens.

[7] = system: LPS from E. coli serotype 055:B5; assay: as above; type: biochemical; conditions: Table 3; errors estimated ±30%; read-out: IC50 values (μM) for LPS binding, E. coli 055:B5
From the text: as §1, §2

[8] = system: MA148 human ovarian carcinoma; assay: Proliferation of MA148 tumor cells; type: cell-based; conditions: read-out: IC50 against MA148 tumor cells
[9] = system: LPS from K. pneumoniae; assay: LPS neutralization assay (Limulus amoebocyte lysate, QCL-1000); type: biochemical, Klebsiella pneumoniae; conditions: Table 3; errors estimated ±30%; read-out: IC50 values (μM) for LPS binding, Klebsiella
From the text: as §1, §2

[10] = system: HUVEC; assay: EC migration, wound healing assay; type: cell-based, human; conditions: 25 μM
Experimental: EC migration was measured in the wound healing assay. HUVEC were cultured in triplicate on a 1-mg/ml fibronectin coat in a 24-well tissue culture plate. Cells were grown for 3 days until confluence. When confluent, a wound was made in the well, using a blunt glass pipette. The medium was replaced with medium containing 10 ng/ml bFGF with or without 25 μM compound and at 0, 2, 4, 6, and 8 hours, the wound width was measured at four different predefined places. Photographs were made using an inverted microscope and a Contax 167 MT 35 mm camera.

[11] = system: LPS from S. marcascens; assay: LPS neutralization assay (Limulus amoebocyte lysate, QCL-1000); type: biochemical, Serratia marcascens; conditions: Table 3; errors estimated ±30%; read-out: IC50 values (μM) for LPS binding, Serratia
From the text: as §1, §2

[12] = system: B16F10 tumor cells; assay: Proliferation of B16F10 tumor cells; type: cell-based, murine; conditions: read-out: IC50 against B16F10 tumor cells
[13] = system: LPS from S. typhimurium; assay: LPS neutralization assay (Limulus amoebocyte lysate, QCL-1000); type: biochemical, Salmonella typhimurium; conditions: Table 3; errors estimated ±30%; read-out: IC50 values (μM) for LPS binding, Salmonella
From the text: as §1, §2

[14] = system: LPS from P. aeruginosa; assay: as above; type: biochemical, Pseudomonas aeruginosa; conditions: Table 3; errors estimated ±30%; read-out: IC50 values (μM) for LPS binding, P.a.
From the text: as §1, §2

SMILES | pIC50 [1] | pIC50 [2] | Solubility (solvent, in words) [3] | bactericidal activity (in words) ([1]; in the micromolar range (Table 1)) | pIC50 [4] | pIC50 [5] | IC50 [6] [µM] | IC50 [7] [µM] | pIC50 [8] | IC50 [9] [µM] | effect on EC migration, wound assay (in words) [10] | IC50 [11] [µM] | pIC50 [12] | IC50 [13] [µM] | IC50 [14] [µM]
CC(C)CCOc1c2cc(CCC(=O)NCCN(C)C)cc1Cc1cc(CCC(=O)NCCN(C)C)cc(c1OCCC(C)C)Cc1cc(CCC(=O)NCCN(C)C)cc(c1OCCC(C)C)Cc1cc(CCC(=O)NCCN(C)C)cc(c1OCCC(C)C)C2 | 5.92 | < 4.60 | DMSO/H2O |  |  |  |  |  |  |  |  |  |  |  | 
CCCc1cc2c(OCC(=O)NCCN(C)C)c(c1)Cc1cc(CCC)cc(c1OCC(=O)NCCN(C)C)Cc1cc(CCC)cc(c1OCC(=O)NCCN(C)C)Cc1cc(CCC)cc(c1OCC(=O)NCCN(C)C)C2 [Compound 11a] |  |  |  | reasonably good bactericidal activity | ~4.70 | < 4.60 | > 5 | 4.4 | 5.10 | 0.08 | ineffective | > 5 | 4.82 | 4.1 | > 5
CC(C)(C)c1cc2c(OCC(=O)NCCN)c(c1)Cc1cc(C(C)(C)C)cc(c1OCC(=O)NCCN)Cc1cc(C(C)(C)C)cc(c1OCC(=O)NCCN)Cc1cc(C(C)(C)C)cc(c1OCC(=O)NCCN)C2 [drawing 14] | < 5.42 | < 4.60 | DMSO/H2O |  |  |  |  |  |  |  |  |  |  |  | 
CC(C)(C)c1cc2c(O)c(c1)Cc1cc(C(C)(C)C)cc(c1OCCCCNC(=N)N)Cc1cc(C(C)(C)C)cc(c1OCCCCNC(=N)N)Cc1cc(C(C)(C)C)cc(c1OCCCCNC(=N)N)C2 | 5.89 | < 4.60 | DMSO/H2O |  |  |  |  |  |  |  |  |  |  |  | 
